Laboratory results from the supplement of paper PMC11208160.

Experiment: recombinant UMI read abundance after kanamycin selection (control-corrected) (log10(CPM+1)); higher = more efficient recombination; extreme values may be limits of the assay; sequences stand for … in AGTGCAGAGAAAATCGGCCAGTTTTCTCTGCCTGCAGTCCGCATGCCGTGGGACCCCTTGGGTTCTAACCTGTTGCCTAGATTTATGCAGCGGACTGCCTTTCTCCCAAAGTGATAAACCGG…AGGTTGGTTTCACT; site = the 11-nt donor
In short: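 For the IS621 bridge recombinase, a pooled Escherichia coli screen tested donor and donor-binding-loop pairs. Cells received the pair library together with a target plasmid encoding a fixed target and T7-inducible recombinase, then went onto IPTG (0.07 mM) plus kanamycin or unselected plates in duplicate. After PCR across the donor–target junction and sequencing, recombinant UMI counts were normalized to CPM, averaged, and scaled by control-derived factors. Each value is given as log10(CPM+1).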

Row | Sequence | recombinant UMI read abundance (log10)
1 | ATCGTCACATGGACCGGTTTTCCCGGTAATCCGTATTTGCA (site ATCGTCACTTG) | 2.56
2 | ATCGTTCCATGGACCGGTTTTCCCGGTAATCCGTATTTGTT (site ATCGTTCCTAA) | 0.568
3 | ATCTAATCATGGACCGGTTTTCCCGGTAATCCGTATTTGGA (site ATCTAATCTTC) | 2.05
4 | ATCTACACATGGACCGGTTTTCCCGGTAATCCGTATTTGCT (site ATCTACACTAG) | 2.26
5 | ATCTACACATGGACCGGTTTTCCCGGTAATCCGTATTTGCT (site CTCTACACTAG) | 1.56
6 | ATCTACACATGGACCGGTTTTCCCGGTAATCCGTATTTGCT (site GTCTACACTAG) | 1.41
7 | ATCTACACATGGACCGGTTTTCCCGGTAATCCGTATTTGCT (site TTCTACACTAG) | 2.05
8 | ATCTAGACATGGACCGGTTTTCCCGGTAATCCGTATTTGAC (site ATCTAAACTGT) | 2.21
9 | ATCTAGACATGGACCGGTTTTCCCGGTAATCCGTATTTGAC (site ATCTACACTGT) | 0
10 | ATCTAGACATGGACCGGTTTTCCCGGTAATCCGTATTTGAC (site ATCTAGACTGT) | 2.68
11 | ATCTAGACATGGACCGGTTTTCCCGGTAATCCGTATTTGAC (site ATCTATACTGT) | 0
12 | ATCTATCCATGGACCGGTTTTCCCGGTAATCCGTATTTGAC (site ATCTATACTGT) | 0
13 | ATCTATCCATGGACCGGTTTTCCCGGTAATCCGTATTTGAC (site ATCTATCCTGT) | 0.991
14 | ATCTATCCATGGACCGGTTTTCCCGGTAATCCGTATTTGAC (site ATCTATGCTGT) | 0
15 | ATCTATCCATGGACCGGTTTTCCCGGTAATCCGTATTTGAC (site ATCTATTCTGT) | 0
16 | ATCTATTCATGGACCGGTTTTCCCGGTAATCCGTATTTGAC (site ATCTATACTGT) | 0.00799
17 | ATCTATTCATGGACCGGTTTTCCCGGTAATCCGTATTTGAC (site ATCTATCCTGT) | 1.89
18 | ATCTATTCATGGACCGGTTTTCCCGGTAATCCGTATTTGAC (site ATCTATGCTGT) | 0
19 | ATCTATTCATGGACCGGTTTTCCCGGTAATCCGTATTTGAC (site ATCTATTCTGT) | 1.51
20 | ATGAAGGCATGGACCGGTTTTCCCGGTAATCCGTATTTGGC (site ATGAAGGCTGC) | 2.32
21 | ATGAAGGCATGGACCGGTTTTCCCGGTAATCCGTATTTGGC (site ATGCAGGCTGC) | 1.72
22 | ATGAAGGCATGGACCGGTTTTCCCGGTAATCCGTATTTGGC (site ATGGAGGCTGC) | 2.09
23 | ATGAAGGCATGGACCGGTTTTCCCGGTAATCCGTATTTGGC (site ATGTAGGCTGC) | 2.08
24 | ATGACGACATGGACCGGTTTTCCCGGTAATCCGTATTTGCA (site AGGAAGACTTG) | 0
25 | ATGACGACATGGACCGGTTTTCCCGGTAATCCGTATTTGCA (site ATGACGACTTG) | 1.81

Row | Sequence | recombinant UMI read abundance (log10)
26 | ATGACTACATGGACCGGTTTTCCCGGTAATCCGTATTTGAC (site AAGACTACTGT) | 0.508
27 | ATGACTACATGGACCGGTTTTCCCGGTAATCCGTATTTGAC (site ACGACTACTGT) | 1.92
28 | ATGACTACATGGACCGGTTTTCCCGGTAATCCGTATTTGAC (site AGGACTACTGT) | 0.907
29 | ATGACTACATGGACCGGTTTTCCCGGTAATCCGTATTTGAC (site ATGACTACTGT) | 2.54
30 | ATGACTGCATGGACCGGTTTTCCCGGTAATCCGTATTTGTC (site ATGACTGCTGA) | 1.47
31 | ATGAGCACATGGACCGGTTTTCCCGGTAATCCGTATTTGGA (site ATGAGCACTTC) | 0.82
32 | ATGAGGCCATGGACCGGTTTTCCCGGTAATCCGTATTTGAC (site ATAAGGCCTGT) | 0
33 | ATGAGGCCATGGACCGGTTTTCCCGGTAATCCGTATTTGAC (site ATCAGGCCTGT) | 0
34 | ATGAGGCCATGGACCGGTTTTCCCGGTAATCCGTATTTGAC (site ATGAGGCCTGT) | 0.716
35 | ATGAGGCCATGGACCGGTTTTCCCGGTAATCCGTATTTGAC (site ATTAGGCCTGT) | 0
36 | ATGATGGCATGGACCGGTTTTCCCGGTAATCCGTATTTGAC (site ATGATGGCTGT) | 2.7
37 | ATGCAGGCATGGACCGGTTTTCCCGGTAATCCGTATTTGGC (site ATGAAGGCTGC) | 0
38 | ATGCAGGCATGGACCGGTTTTCCCGGTAATCCGTATTTGGC (site ATGCAGGCTGC) | 2.77
39 | ATGCAGGCATGGACCGGTTTTCCCGGTAATCCGTATTTGGC (site ATGGAGGCTGC) | 0
40 | ATGCAGGCATGGACCGGTTTTCCCGGTAATCCGTATTTGGC (site ATGTAGGCTGC) | 0.922
41 | ATGCCACCATGGACCGGTTTTCCCGGTAATCCGTATTTGTA (site ATGCCACCTTA) | 0
42 | ATGCTGACATGGACCGGTTTTCCCGGTAATCCGTATTTGGT (site ATGCTGACTAC) | 1.32
43 | ATGCTTCCATGGACCGGTTTTCCCGGTAATCCGTATTTGCA (site ATGCTTCCTTG) | 1.47
44 | ATGGAGACATGGACCGGTTTTCCCGGTAATCCGTATTTGGT (site ATAGAGACTAC) | 1.66
45 | ATGGAGACATGGACCGGTTTTCCCGGTAATCCGTATTTGGT (site ATCGAGACTAC) | 0.157
46 | ATGGAGACATGGACCGGTTTTCCCGGTAATCCGTATTTGGT (site ATGGAGACTAC) | 1.83
47 | ATGGAGACATGGACCGGTTTTCCCGGTAATCCGTATTTGGT (site ATTGAGACTAC) | 0.681
48 | ATGGAGTCATGGACCGGTTTTCCCGGTAATCCGTATTTGGA (site ATGGAGTCTTC) | 2.86
49 | ATGGGAGCATGGACCGGTTTTCCCGGTAATCCGTATTTGCT (site ATGGGAGCTAG) | 2.19
50 | ATGGGCTCATGGACCGGTTTTCCCGGTAATCCGTATTTGTC (site ATGGGCTCTGA) | 2.97

Row | Sequence | recombinant UMI read abundance (log10)
51 | ATGGGGTCATGGACCGGTTTTCCCGGTAATCCGTATTTGAC (site ATGGGGTCTGT) | 3.47
52 | ATGGTTCCATGGACCGGTTTTCCCGGTAATCCGTATTTGTC (site ATGGTTCCTGA) | 1.67
53 | ATGTACACATGGACCGGTTTTCCCGGTAATCCGTATTTGAA (site ATGTACACTTT) | 1.82
54 | ATGTAGACATGGACCGGTTTTCCCGGTAATCCGTATTTGGC (site ATGTAGACTGC) | 2.91
55 | ATGTAGACATGGACCGGTTTTCCCGGTAATCCGTATTTGGC (site ATGTAGCCTGC) | 0
56 | ATGTAGACATGGACCGGTTTTCCCGGTAATCCGTATTTGGC (site ATGTAGGCTGC) | 2.14
57 | ATGTAGACATGGACCGGTTTTCCCGGTAATCCGTATTTGGC (site ATGTAGTCTGC) | 1.67
58 | ATGTAGCCATGGACCGGTTTTCCCGGTAATCCGTATTTGTT (site ATGTAGCCTAA) | 0.171
59 | ATGTAGGCATGGACCGGTTTTCCCGGTAATCCGTATTTGAC (site ATGTAGGCTGA) | 2.33
60 | ATGTAGGCATGGACCGGTTTTCCCGGTAATCCGTATTTGAC (site ATGTAGGCTGC) | 1.87
61 | ATGTAGGCATGGACCGGTTTTCCCGGTAATCCGTATTTGAC (site ATGTAGGCTGG) | 1.57
62 | ATGTAGGCATGGACCGGTTTTCCCGGTAATCCGTATTTGAC (site ATGTAGGCTGT) | 3.04
63 | ATGTAGTCATGGACCGGTTTTCCCGGTAATCCGTATTTGGC (site ATGTAGACTGC) | 1.85
64 | ATGTAGTCATGGACCGGTTTTCCCGGTAATCCGTATTTGGC (site ATGTAGCCTGC) | 0
65 | ATGTAGTCATGGACCGGTTTTCCCGGTAATCCGTATTTGGC (site ATGTAGGCTGC) | 0
66 | ATGTAGTCATGGACCGGTTTTCCCGGTAATCCGTATTTGGC (site ATGTAGTCTGC) | 3.26
67 | ATGTATGCATGGACCGGTTTTCCCGGTAATCCGTATTTGGC (site ATGTAAGCTGC) | 1.52
68 | ATGTATGCATGGACCGGTTTTCCCGGTAATCCGTATTTGGC (site ATGTACGCTGC) | 1.51
69 | ATGTATGCATGGACCGGTTTTCCCGGTAATCCGTATTTGGC (site ATGTAGGCTGC) | 0.86
70 | ATGTATGCATGGACCGGTTTTCCCGGTAATCCGTATTTGGC (site ATGTATGCTGC) | 3.22
71 | ATGTCCTCATGGACCGGTTTTCCCGGTAATCCGTATTTGTA (site ATGTCCTCTTA) | 2.5
72 | ATGTCGTCATGGACCGGTTTTCCCGGTAATCCGTATTTGTA (site ATGTCGTCTTA) | 1.95
73 | ATGTGCCCATGGACCGGTTTTCCCGGTAATCCGTATTTGCG (site ATGTGCCCTCG) | 0
74 | ATGTTCCCATGGACCGGTTTTCCCGGTAATCCGTATTTGTG (site AAGTTCCCTCA) | 0.0217
75 | ATGTTCCCATGGACCGGTTTTCCCGGTAATCCGTATTTGTG (site ACGTTCCCTCA) | 0.0446
